The values below come from patent US12465578B2, “Substituted alpha-ethyl phenylalkylamines” (Alexander Shulgin Research Institute, Inc., priority 2021, dated 2025).

The nature of this data set: In vitro metabolic stability: percent of compound remaining in human liver microsomes. The data set is classed as in vitro ADME. The note with it: for Percent of Compound Remaining Over Time / Dunnett's Multiple Comparison Test Mean Diff. (percent remaining, 2C-B minus compound): human liver microsomes; for rate of metabolism compared with 2C-B: human liver microsomes, 15, 30, 45 and 60 minutes of incubation; for rate of metabolism compared with 2C-B / Dunnett's Multiple Comparison Test Mean Diff. (percent remaining, 2C-B minus compound): 2C-B as control drug; for Dunnett's Multiple Comparison Test Mean Diff. (percent remaining, 2C-B minus compound): one-way ANOVA with Dunnett's post-test. As for the experimental part:
A high-throughput assay is used to determine metabolic stability of disclosed compounds and undeuterated analogs thereof in various matrices, including human liver microsomes, using LCMS analysis to quantify the percent compound remaining after incubation. Briefly, the disclosed compound is mixed with liver microsomes and activated. Following this incubation, acetonitrile is added to terminate the reaction. Then, the samples are centrifuged and the supernatant is dried. The residue is reconstituted and analyzed using liquid chromatography-mass spectrometry. Pharmacokinetic parameters are calculated using a noncompartmental model. The half-life (t1/2) is estimated from the slope of the initial linear range of the logarithmic curve of compound remaining (%) versus time, assuming first order kinetics.
In one such assay of metabolic stability, percent of compound remaining was determined in human liver microsomes after 15, 30, 45, and 60 minutes of incubation, for 2C-B, 2C-B-2-OCD3 (compound I-B-31), and 2C-B-5-OCD3 (compound I-A-31).
In general terms: Microsomes from liver hold many membrane-bound enzymes, among them those of drug oxidation.

For `Cl.[2H]C([2H])([2H])Oc1cc(CCN)c(OC)cc1Br` [Compound 2C-B-5-OCD3, 2-(4-bromo-2-methoxy-5-(methoxy-d3)phenyl)ethan-1-amine hydrochloride], the “rate of metabolism compared with 2C-B” value is listed as “metabolized more quickly than 2C-B” and the “Dunnett's Multiple Comparison Test Mean Diff. (percent remaining, 2C-B minus compound)” value amounted to 14.31. Besides, under “0 minutes of incubation”, the “Percent of Compound Remaining Over Time” value is 100.0000%. In addition, where the note is “15 minutes of incubation”, the “Percent of Compound Remaining Over Time” value is reported as 96.2535%. The “Percent of Compound Remaining Over Time” value (30 minutes of incubation) was 90.6402%. Further, for the setting “45 minutes of incubation”, the “Percent of Compound Remaining Over Time” value is 90.7021%. Also, the “Percent of Compound Remaining Over Time” value (60 minutes of incubation) worked out at 86.9011%.

Take `Cl.[2H]C([2H])([2H])Oc1cc(Br)c(OC)cc1CCN` [Compound 2C-B-2-OCD3, 2-(4-bromo-5-methoxy-2-(methoxy-d3)phenyl)ethan-1-amine hydrochloride]: the “rate of metabolism compared with 2C-B” value was “metabolized more quickly than 2C-B” and the “Dunnett's Multiple Comparison Test Mean Diff. (percent remaining, 2C-B minus compound)” value is listed as 11.57. For the setting “0 minutes of incubation”, the “Percent of Compound Remaining Over Time” value is 100.0000%. Under “15 minutes of incubation”, the “Percent of Compound Remaining Over Time” value came out at 95.8357%. Also, under “30 minutes of incubation”, the “Percent of Compound Remaining Over Time” value was 91.9169%. The “Percent of Compound Remaining Over Time” value (45 minutes of incubation) was 98.7307%. For the same compound, the “Percent of Compound Remaining Over Time” value (60 minutes of incubation) stood at 91.6972%.

Take `COc1cc(CCN)c(OC)cc1Br` [Compound 2C-B, 2-(4-bromo-2,5-dimethoxyphenyl)ethanamine, reference compound]: the “Percent of Compound Remaining Over Time” value (0 minutes of incubation) came to 100.0000%; the “Percent of Compound Remaining Over Time” value (15 minutes of incubation) is 104.3970%; the “Percent of Compound Remaining Over Time” value (30 minutes of incubation) came out at 109.8740%; the “Percent of Compound Remaining Over Time” value (45 minutes of incubation) worked out at 105.1500%; the “Percent of Compound Remaining Over Time” value (60 minutes of incubation) came to 116.6050%.
